Experiments:
Format in all cases: cell-based, human
[1] = tested on: syk phosphorylation in integrin/TNF stimulated neutrophils; test: syk phosphorylation in integrin/TNF stimulated neutrophils (in cell Western); settings: 10 ug/ml compound, TNFα 200 ng/ml, 1 hr; FIG. 11
Method: Inhibition of syk phosphorylation was tested using the FACEMaker in cell Western Blot kit from Active Motif (Carlsbad, Calif.). In this assay, freshly isolated neutrophils were plated onto fibrinogen coated wells and stimulated with TNF at 200 ng/ml. After 1 hr., cells were fixed in formaldehyde and the Western Blot performed according to the kit instructions, with the final colorimetric product read in a plate reader. Results were corrected for cell number by subsequent staining of the cells with crystal violet and recording OD at 630 nm.
Neutrophils were isolated from healthy human donors using Polymorphprep (Axis Shield). Cells were equilibrated for 15 minutes at 37° C. in the presence or absence of 10 ug/ml compound. TNFα was added to a concentration of 200 ng/ml and cells dispensed into a 96 well strip plate previously coated with 2 mg/ml fibrinogen at 1×10^6 cells/well. Reactions were incubated at 37° C. for 1 hr., and cells fixed with 4% formaldehyde for 20 minutes at room temperature. […] The reaction was developed using the kit developing solution and the resulting colorimetric product read in a plate reader at 450 nm with a 650 nm reference. […]

[2] = tested on: TNF/antineutrophil cytoplasmic antibody stimulated neutrophils; test: Respiratory burst in TNF/antineutrophil cytoplasmic antibody stimulated neutrophils (cytochrome c reduction); settings: 10 ug/ml compound, TNFα 200 ng/ml, anti-MPO or anti-Pr3; FIGS. 5 and 6
Method: During the respiratory burst of activated neutrophils, reactive oxygen intermediates such as superoxide anion, hydroxyl radical, and hydrogen peroxide are produced. To determine the ability of compounds to affect syk dependent respiratory burst, superoxide anion production was measured in a microplate assay using the reduction of cytochrome c as a reporter assay. Respiratory burst can be induced through two different syk dependent signaling pathways, integrin mediated and Fc Receptor mediated. Compounds were tested in both pathways.
For respiratory burst assays, neutrophils (1×10^6) were added to microtiter plates that were coated with fibrinogen for integrin signaling or uncoated for Fc receptor signaling. […] At the end of the incubations, reduction of cytochrome c was quantified by measuring absorbance at 550 nm using a microplate reader. […]
(§1) Neutrophils were isolated from healthy human donors using Polymorphprep (Axis Shield). […] Reduction of cytochrome c was measured by reading absorbance at 550 nm with a 490 nm reference in a spectrophotometer. […]
as §1

[3] = tested on: neutrophils; test: Zymosan phagocytosis by neutrophils (CytoSelect 96-Well Phagocytosis Assay); settings: 10 ug/ml compound, zymosan 1.5 hrs; FIG. 10
Method: Inhibition of phagocytosis was carried out using the CytoSelect™ 96-Well Phagocytosis Assay (Cell Biolabs, Inc). The phagocytic target was zymosan (Saccharomyces cerevisiae), made from yeast cell wall. For this assay, neutrophils were seeded onto fibrinogen coated wells in the presence of inhibitor. Zymosan was added, and reactions incubated for 1.5 hr. Phagocytosis was detected by permeabilizing the cells and adding a detection reagent that was quantified colorimetrically in a plate reader at 405 nm.
Neutrophils were isolated from healthy human donors using Polymorphprep (Axis Shield). Cells were equilibrated for 15 minutes at 37° C. in the presence or absence of 10 ug/ml compound, then plated into 96 well plates previously coated with 2 ng/ml fibrinogen. The subsequent phagocytosis assay was carried out using a commercial phagocytosis assay (CytoSelect™ 96-Well Phagocytosis Assay (Zymosan), Cell Biolabs.) Briefly, cells were incubated with zymosan at 37° C. for 1.5 hrs., fixed with 8% formaldehyde for 5 minutes at room temperature, blocked, permeabilized and detection reagent added which detects phagocytosed zymosan. The reaction was developed by adding a substrate and the resulting colorimetric product was detected in a plate reader. ODs were corrected for relative confluence of the cells based on a visual estimate of confluence. Results are reported as corrected ODs.

SMILES: N#Cc1c(C(F)(F)F)cc(-c2ccc(Br)cc2)nc1SC(C(=O)O)c1ccccc1 (stereo not drawn) [Compound 1, α-[[6-(4-bromophenyl)-3-cyano-4-(trifluoromethyl)-2-pyridinyl]thio]-benzeneacetic acid]
- inhibition of syk phosphorylation in integrin/TNF stimulated neutrophils [1]: inhibition
- respiratory burst in TNF/antineutrophil cytoplasmic antibody stimulated neutrophils [2]: stimulation
- inhibition of zymosan phagocytosis by neutrophils [3]: inhibition
